Reference: patent US20250304549A1, “HYDROXYAMIDE DERIVATIVE AND USE THEREOF” (SICHUAN HUIYU PHARMACEUTICAL CO., LTD., priority 2022, published 2025)
Structures can show the parent of a compound that is named as a salt.

How the values were obtained:
NCI-H69 cells = assay: In vitro cell inhibition assay - NCI-H69 cell proliferation (CellTiter-Glo); assay type: cell-based; settings: Homo sapiens, NCI-H69, H69 small cell lung cancer cell proliferation
Outline: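 CellTiter-Glo luminescence measured viability after a 7-day, 37° C. exposure of NCI-H69 cells (1×10^3/well) to an 8-point, 5-fold dilution series in RPMI-640/20% FBS. Inhibition was normalised to untreated and cell-free wells and IC50 derived by curve fitting.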

HDAC1 = HDAC1 (Homo sapiens (Human), UniProt Q13547); assay: In vitro enzyme inhibition assay - HDAC (HDAC-Glo I/II), HDAC1; assay type: biochemical; settings: read-out: HDAC IC50 (nM) HDAC 1
Outline: (§1)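 Eight compound concentrations (5-fold gradient; 1 mM DMSO stock) were assayed by HDAC-Glo I/II luminescence. IC50 was obtained by four-parameter fitting.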

LSD1 = LSD1 (Homo sapiens (Human), UniProt O60341); assay: In vitro enzyme inhibition assay - LSD1 (HTRF); assay type: biochemical
pan-HDAC = assay: In vitro enzyme inhibition assay - HDAC (HDAC-Glo I/II), pan-HDAC; assay type: biochemical
Outline: as §1

HDAC8 = HDAC8 (Homo sapiens (Human), UniProt Q9BY41); assay: In vitro enzyme inhibition assay - HDAC (HDAC-Glo I/II), HDAC8; assay type: biochemical; settings: read-out: HDAC IC50 (nM) HDAC 8
Outline: as §1

NCI-H1417 cells = assay: In vitro cell inhibition assay - H1417 cell proliferation (CellTiter-Glo); assay type: cell-based; settings: Homo sapiens, NCI-H1417, H1417 small cell lung cancer cell proliferation
Outline: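 Cells exposed to 8 compound concentrations (5-fold dilutions) in BEGM with 10% FBS for 7 days at 37° C., 5% CO2. Viable cells measured by CellTiter-Glo luminescence; inhibition versus no-inhibitor and no-cell controls, IC50 fitted.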

NCI-H526 cells = assay: In vitro cell inhibition assay - NCI-H526 cell proliferation (CellTiter-Glo); assay type: cell-based; settings: Homo sapiens, NCI-H526, 120 h, H526 small cell lung cancer cell proliferation, 5 days
Outline: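 NCI-H526 cells plated at 1×10^3 per well overnight, then treated with 8 concentrations (5-fold dilutions) in RPMI-640 with 10% FBS for 5 days at 37° C., 5% CO2. Viable cells quantified by CellTiter-Glo luminescence; IC50 fitted from inhibition rates relative to no-inhibitor and no-cell controls.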

Chain of HDAC1 (Q13547 whole entry): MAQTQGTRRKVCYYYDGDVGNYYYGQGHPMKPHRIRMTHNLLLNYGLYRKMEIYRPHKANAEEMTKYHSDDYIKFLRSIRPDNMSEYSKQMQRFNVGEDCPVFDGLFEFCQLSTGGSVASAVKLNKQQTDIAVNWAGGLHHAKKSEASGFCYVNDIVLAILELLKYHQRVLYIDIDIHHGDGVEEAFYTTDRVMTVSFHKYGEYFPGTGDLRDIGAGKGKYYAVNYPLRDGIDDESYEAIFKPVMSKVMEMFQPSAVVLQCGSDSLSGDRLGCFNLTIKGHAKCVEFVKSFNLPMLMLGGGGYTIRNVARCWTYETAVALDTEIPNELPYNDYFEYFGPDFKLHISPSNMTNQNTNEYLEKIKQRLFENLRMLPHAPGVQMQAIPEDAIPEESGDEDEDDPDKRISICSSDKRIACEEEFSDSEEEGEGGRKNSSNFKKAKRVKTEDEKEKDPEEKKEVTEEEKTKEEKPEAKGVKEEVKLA
Chain of HDAC8 (Q9BY41 whole entry): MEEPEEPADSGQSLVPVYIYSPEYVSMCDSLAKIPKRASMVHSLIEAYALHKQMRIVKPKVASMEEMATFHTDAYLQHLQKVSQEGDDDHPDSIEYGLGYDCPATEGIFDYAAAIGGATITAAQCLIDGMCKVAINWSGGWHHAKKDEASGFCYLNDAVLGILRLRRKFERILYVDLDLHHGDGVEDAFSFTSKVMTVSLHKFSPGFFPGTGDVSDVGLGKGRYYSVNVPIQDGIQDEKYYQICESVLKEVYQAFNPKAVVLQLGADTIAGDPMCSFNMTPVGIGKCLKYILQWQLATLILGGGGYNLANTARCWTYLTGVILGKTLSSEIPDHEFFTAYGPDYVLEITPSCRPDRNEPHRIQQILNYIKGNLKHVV

Row | Compound | IC50 (NCI-H69 cells) [nM] | IC50 (HDAC1) [nM] | IC50 (LSD1) [nM] | IC50 (pan-HDAC) [nM] | IC50 (HDAC8) [nM] | IC50 (NCI-H1417 cells) [nM] | IC50 (NCI-H526 cells) [nM]
1 | COc1ccc(-c2cnc(N3CCC(NCc4cnc(/C=C/C(=O)NO)nc4)CC3)c(C)c2-c2ccc(C#N)c(F)c2)cc1O [Example 202, (E)-3-(5-(((1-(4-(4-Cyano-3-fluorophenyl)-5-(3-hydroxy-4-methoxyphenyl)-3-methylpyridin-2-yl)piperidin-4-yl)amino)methyl)pyrimidin-2-yl)-N-hydroxyacrylamide formate] | 13.6 | 0.88 | 74.2 | 1.85 | 9.03 | 6.15 | 4.35
2 | N#Cc1ccc(-c2c(-c3ccc4cn[nH]c4c3)cnc(N3CCC(NCc4ccc(/C=C/C(=O)NO)nc4)CC3)c2C#N)cc1F [Example 182, (E)-3-(5-(((1-(3-Cyano-4-(4-cyano-3-fluorophenyl)-5-(1H-indazol-6-yl)pyridin-2-yl)piperidin-4-yl)amino)methyl)pyridin-2-yl)-N-hydroxyacrylamide formate] | 4.36 | 1.3 | 0.09 | 3.02 | 30.1 | 9.29 | 7.04
3 | COc1ccc(-c2cnc(N3CCC(NCc4ccc(/C=C/C(=O)NO)cc4)CC3)c(C#N)c2-c2ccc(C#N)nc2)cc1O [Example 208, (E)-3-(4-(((1-(3′,6-Dicyano-5′-(3-hydroxy-4-methoxyphenyl)-[3,4′-bipyridin]-2′-yl)piperidin-4-yl)amino)methyl)phenyl)-N-hydroxyacrylamide] | 4.62 | 1.74 | 0.73 | 1.13 | 17.2 | 2.2 | 3.82
4 | CC(C)(O)COc1ccc(-c2cnc(N3CCC(NCc4cnc(/C=C/C(=O)NO)nc4)CC3)c(C#N)c2-c2ccc(C#N)c(F)c2)cc1O [Example 187, (E)-3-(5-(((1-(3-Cyano-4-(4-cyano-3-fluorophenyl)-5-(3-hydroxy-4-(2-hydroxy-2-methylpropoxy)phenyl)pyridin-2-yl)piperidin-4-yl)amino)methyl)pyrimidin-2-yl)-N-hydroxyacrylamide formate] | 14.8 | 1.98 | 4.11 | 3.71 | 15.5 | 4.89 | 20.9
5 | CC(C)(O)COc1ccc(-c2cnc(N3CCC(NCc4ccc(OCC(=O)NO)cc4)CC3)c(C#N)c2-c2ccc(C#N)c(F)c2)cc1O [Example 192, 2-(4-(((1-(3-cyano-4-(4-cyano-3-fluorophenyl)-5-(3-hydroxy-4-(2-hydroxy-2-methylpropoxy)phenyl)pyridin-2-yl)piperidin-4-yl)amino)methyl)phenoxy)-N-hydroxyacetamide formate] | 28 | 1.49 | 0.45 | 2.75 | 64.9 | 1.98 | 82.1
6 | CC(C)(O)COc1ccc(-c2cnc(N3CCC(NCc4ccc(CCC(=O)NO)cc4)CC3)c(C#N)c2-c2ccc(C#N)c(F)c2)cc1O [Example 188, 3-(4-(((1-(3-Cyano-4-(4-cyano-3-fluorophenyl)-5-(3-hydroxy-4-(2-hydroxy-2-methylpropoxy)phenyl)pyridin-2-yl)piperidin-4-yl)amino)methyl)phenyl)-N-hydroxypropanamide formate] | 29.7 | 3.06 | 0.3 | 5.07 | 198 | 1.74 | 80.4
7 | N#Cc1ccc(-c2c(-c3ccc(/C=C/C(=O)NO)c(O)c3)cnc(N3CCC(N)CC3)c2C#N)cc1F [Example 62, (E)-3-(4-(6-(4-Aminopiperidin-1-yl)-5-cyano-4-(4-cyano-3-fluorophenyl)pyridin-3-yl)-2-hydroxyphenyl)-N-hydroxyacrylamide hydrochloride] | 3220 | 17.3 | 0.49 | 5.53 | 3190 | 9.86 | 1210
8 | Cc1c(N2CCC(NCc3ccc(/C=C/C(=O)NO)cc3)CC2)ncc(-c2ccc(OCC(C)(C)O)c(O)c2)c1-c1ccc(C#N)c(F)c1 [Example 207, (E)-3-(4-(((1-(4-(4-Cyano-3-fluorophenyl)-5-(3-hydroxy-4-(2-hydroxy-2-methylpropoxy)phenyl)-3-methylpyridin-2-yl)piperidin-4-yl)amino)methyl)phenyl)-N-hydroxyacrylamide hydrochloride] | 33.6 | 2.51 | 6.65 | 12.4 | 170 | 9.5 | 26.6

The remaining lines, values ahead:

Row | IC50 (NCI-H69 cells) [nM] | IC50 (HDAC1) [nM] | IC50 (LSD1) [nM] | IC50 (pan-HDAC) [nM] | IC50 (HDAC8) [nM] | IC50 (NCI-H1417 cells) [nM] | IC50 (NCI-H526 cells) [nM] | Compound
9 | 9.24 | 1.92 | 0.54 | 2.77 | 33.9 | 2.78 | 4.05 | CC(C)(O)COc1ccc(-c2cnc(N3CCC(NCc4ccc(/C=C/C(=O)NO)nc4)CC3)c(C#N)c2-c2ccc(C#N)c(F)c2)cc1O [Example 199, (E)-3-(5-((1-(3-Cyano-4-(4-cyano-3-fluorophenyl)-5-(3-hydroxy-4-(2-hydroxy-2-methylpropoxy)phenyl)pyridin-2-yl)piperidin-4-yl)amino)methyl) pyridin-2-yl)-N-hydroxyacrylamide formate]
10 | 24.6 | 0.54 | 2.24 | 2.17 | 37.5 | 3.38 | 25.9 | COc1ccc(-c2cnc(N3CCC(NCc4ccc(CCC(=O)NO)nc4)CC3)c(C#N)c2-c2ccc(C#N)c(F)c2)cc1O [Example 191, 3-(5-(((1-(3-Cyano-4-(4-cyano-3-fluorophenyl)-5-(3-hydroxy-4-methoxyphenyl)pyridin-2-yl)piperidin-4-yl)amino)methyl)pyridin-2-yl)-N-hydroxypropanamide formate]
11 | 5.16 | 2.95 | 0.45 | 4.18 | 127 | 2.27 | 4.1 | COc1ccc(-c2cnc(N3CCC(NCc4ccc(/C=C/C(=O)NO)c(F)c4)CC3)c(C#N)c2-c2ccc(C#N)c(F)c2)cc1O [Example 200, (E)-3-(4-(((1-(3-Cyano-4-(4-cyano-3-fluorophenyl)-5-(3-hydroxy-4-methoxyphenyl)pyridin-2-yl)piperidin-4-yl)amino)methyl)-2-fluorophenyl)-N-hydroxyacrylamide formate]
12 | 15.1 | 4.44 | 1.13 | 2.5 | 456 | 3.53 | 5.86 | COc1ccc(-c2cnc(N3CCC(NC(C)c4ccc(/C=C/C(=O)NO)cc4)CC3)c(C#N)c2-c2ccc(C#N)c(F)c2)cc1O (stereo not drawn) [Example 210, (E)-3-(4-(1-((1-(3-Cyano-4-(4-cyano-3-fluorophenyl)-5-(3-hydroxy-4-methoxyphenyl)pyridin-2-yl)piperidin-4-yl)amino)ethyl)phenyl)-N-hydroxyacrylamide formate]
13 | 2.75 | 1.74 | 100 | 3.1 | 374 | 3.66 | 4.44 | COc1ccc(-c2cnc(N3CCC(NC(C)(C)c4ccc(/C=C/C(=O)NO)cc4)CC3)c(C#N)c2-c2ccc(C#N)c(F)c2)cc1O [Example 179, (E)-3-(4-(2-((1-(3-Cyano-4-(4-cyano-3-fluorophenyl)-5-(3-hydroxy-4-methoxyphenyl)pyridin-2-yl)piperidin-4-yl)amino)propan-2-yl)phenyl)-N-hydroxyacrylamide formate]
14 | 3.81 | 0.43 | 1.76 | 2.23 | 42.1 | 10.2 | 8.35 | COc1ccc(-c2cnc(N3CCC(NCc4ccc(/C=C/C(=O)NO)cc4)CC3)c(CC#N)c2-c2ccc(C#N)c(F)c2)cc1O [Example 233, (E)-3-(4-(((1-(4-(4-cyano-3-fluorophenyl)-3-(cyanomethyl)-5-(3-hydroxy-4-methoxyphenyl)pyridin-2-yl)piperidin-4-yl)amino)methyl)phenyl)-N-hydroxyacrylamide formate]
15 | 13.1 | 0.08 | 0.13 | 2.11 | 75.1 | 2.93 | 28.4 | COc1ccc(-c2cnc(N3CCC(NCc4ccc(OCC(=O)NO)cc4)CC3)c(C#N)c2-c2ccc(C#N)c(F)c2)cc1O [Example 181]
